# Results taken from paper PMC9798004 (Frontiers in Psychiatry, 2022).
# Legend:
# Assay in all cases: PathHunter β-arrestin assay
# Format in all cases: cell-based
# [1] = target: T1, P2RY11 (Homo sapiens, UniProt Q96G91); settings: screen, control agonist; CHO, 37C, 2HR
# T1 construct: purchased Eurofins DiscoverX (PathHunter gpcrMAX)
# [2] = target: PTGER4 (Homo sapiens, UniProt P35408); settings: control agonist
# Description: Follow up experiments were prioritized based on the difference between S/N and CoV. Targets with a >5-fold difference between S/N and CoV were investigated for their potential contribution to the AMB-FUBINACA toxidrome with 10-point concentration-response curves generated in technical replicate (range 1.5–30 μM) using the EC80 of the relevant agonist, where applicable in antagonist mode. Simultaneous agonist and antagonist curves were run in parallel to ensure reliability of the assay (see Supplementary Table 2), with both RC50 and signal to background aligning with historical averages, and Z' >0.5. RC50 was estimated using a four-parameter fit (CBIS Data Analysis Suite, ChemInnovation, San Diego, CA) on normalized data.
# [3] = target: T2, PTGER2 (Homo sapiens, UniProt P43116); settings: screen, control agonist; CHO, 37C, 2HR
# T2 construct: purchased Eurofins DiscoverX (PathHunter gpcrMAX)
# [4] = target: T3, PTAFR (Homo sapiens, UniProt P25105); settings: screen, control agonist; CHO, 37C, 2HR
# T3 construct: purchased Eurofins DiscoverX (PathHunter gpcrMAX)
# [5] = target: T4, PTGIR (Homo sapiens, UniProt P43119); settings: screen, control agonist; CHO, 37C, 2HR
# T4 construct: purchased Eurofins DiscoverX (PathHunter gpcrMAX)
# [6] = target: T5, NPY1R (Homo sapiens, UniProt P25929); settings: screen, control agonist; CHO, RT, 2HR
# T5 construct: purchased Eurofins DiscoverX (PathHunter gpcrMAX)
# T5 sequence (P25929 1-384): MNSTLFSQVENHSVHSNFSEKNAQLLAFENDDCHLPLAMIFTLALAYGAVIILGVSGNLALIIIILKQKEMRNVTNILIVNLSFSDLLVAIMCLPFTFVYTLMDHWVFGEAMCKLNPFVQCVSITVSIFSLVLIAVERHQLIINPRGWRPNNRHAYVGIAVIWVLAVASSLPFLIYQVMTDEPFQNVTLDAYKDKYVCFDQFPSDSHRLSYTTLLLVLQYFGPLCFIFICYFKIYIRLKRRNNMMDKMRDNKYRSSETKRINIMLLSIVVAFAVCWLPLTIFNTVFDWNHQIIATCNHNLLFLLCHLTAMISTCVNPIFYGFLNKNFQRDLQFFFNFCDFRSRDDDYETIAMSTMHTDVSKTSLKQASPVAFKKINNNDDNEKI
# [7] = target: T6, RXFP3 (Homo sapiens, UniProt Q9NSD7); settings: screen, control agonist; CHO, 37C, 2HR
# T6 construct: purchased Eurofins DiscoverX (PathHunter gpcrMAX)
# T6 sequence (Q9NSD7 1-469): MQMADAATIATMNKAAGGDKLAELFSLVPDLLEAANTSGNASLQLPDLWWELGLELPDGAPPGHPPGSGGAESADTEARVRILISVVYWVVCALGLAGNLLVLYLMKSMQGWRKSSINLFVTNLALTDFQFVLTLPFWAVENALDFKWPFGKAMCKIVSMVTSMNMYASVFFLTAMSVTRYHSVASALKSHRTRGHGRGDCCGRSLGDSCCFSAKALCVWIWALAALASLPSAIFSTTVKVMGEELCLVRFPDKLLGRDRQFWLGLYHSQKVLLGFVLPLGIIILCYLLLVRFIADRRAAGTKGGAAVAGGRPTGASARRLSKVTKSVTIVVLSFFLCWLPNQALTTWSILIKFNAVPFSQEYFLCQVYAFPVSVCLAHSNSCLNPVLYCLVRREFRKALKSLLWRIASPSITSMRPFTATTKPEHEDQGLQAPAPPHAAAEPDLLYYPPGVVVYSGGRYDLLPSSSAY
# [8] = target: T7, OXER1 (Homo sapiens, UniProt Q8TDS5); settings: screen, control agonist; CHO, RT, 2HR
# T7 construct: purchased Eurofins DiscoverX (PathHunter gpcrMAX)
# [9] = target: T8, TBXA2R (Homo sapiens, UniProt P21731); settings: screen, control agonist; U2OS, 37C, 2HR
# T8 construct: purchased Eurofins DiscoverX (PathHunter gpcrMAX)
# [10] = target: T9, SSTR3 (Homo sapiens, UniProt P32745); settings: screen, control agonist; CHO, 37C, 2HR
# T9 construct: purchased Eurofins DiscoverX (PathHunter gpcrMAX)
# T9 sequence (P32745 whole entry): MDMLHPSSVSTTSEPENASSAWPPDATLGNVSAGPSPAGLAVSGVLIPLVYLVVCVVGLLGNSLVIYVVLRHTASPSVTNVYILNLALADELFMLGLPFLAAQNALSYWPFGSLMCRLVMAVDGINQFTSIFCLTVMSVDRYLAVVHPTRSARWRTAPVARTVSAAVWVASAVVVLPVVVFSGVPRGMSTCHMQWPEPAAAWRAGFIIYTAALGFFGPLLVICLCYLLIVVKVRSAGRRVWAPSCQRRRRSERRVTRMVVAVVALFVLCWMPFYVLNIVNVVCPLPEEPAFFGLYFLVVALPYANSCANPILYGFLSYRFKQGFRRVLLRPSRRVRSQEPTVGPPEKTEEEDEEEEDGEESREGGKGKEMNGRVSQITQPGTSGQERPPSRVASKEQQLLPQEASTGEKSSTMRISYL
# Sequence of PTGER4 (P35408 whole entry): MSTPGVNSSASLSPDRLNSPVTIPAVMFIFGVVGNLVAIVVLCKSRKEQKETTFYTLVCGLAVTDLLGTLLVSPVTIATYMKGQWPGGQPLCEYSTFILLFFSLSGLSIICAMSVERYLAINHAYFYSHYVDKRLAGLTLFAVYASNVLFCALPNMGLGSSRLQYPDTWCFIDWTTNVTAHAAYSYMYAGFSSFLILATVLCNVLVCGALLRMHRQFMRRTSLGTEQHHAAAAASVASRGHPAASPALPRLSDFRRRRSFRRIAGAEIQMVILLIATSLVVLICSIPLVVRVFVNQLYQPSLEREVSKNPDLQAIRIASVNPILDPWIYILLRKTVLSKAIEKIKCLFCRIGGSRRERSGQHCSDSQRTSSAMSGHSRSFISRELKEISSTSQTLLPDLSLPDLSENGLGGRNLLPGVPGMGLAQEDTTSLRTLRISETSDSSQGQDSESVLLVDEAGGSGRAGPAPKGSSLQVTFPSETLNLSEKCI
# T4 sequence (P43119 whole entry): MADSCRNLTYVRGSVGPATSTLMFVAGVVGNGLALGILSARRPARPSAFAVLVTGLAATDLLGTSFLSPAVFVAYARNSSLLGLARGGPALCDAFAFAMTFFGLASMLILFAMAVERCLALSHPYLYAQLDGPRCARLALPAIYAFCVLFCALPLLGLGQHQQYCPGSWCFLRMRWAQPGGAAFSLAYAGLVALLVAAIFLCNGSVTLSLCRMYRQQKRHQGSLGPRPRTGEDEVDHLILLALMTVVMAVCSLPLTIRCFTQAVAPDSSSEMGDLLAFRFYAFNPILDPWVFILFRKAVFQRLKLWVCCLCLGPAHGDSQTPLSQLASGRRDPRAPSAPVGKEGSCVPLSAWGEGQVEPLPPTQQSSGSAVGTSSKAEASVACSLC
# T8 sequence (P21731 whole entry): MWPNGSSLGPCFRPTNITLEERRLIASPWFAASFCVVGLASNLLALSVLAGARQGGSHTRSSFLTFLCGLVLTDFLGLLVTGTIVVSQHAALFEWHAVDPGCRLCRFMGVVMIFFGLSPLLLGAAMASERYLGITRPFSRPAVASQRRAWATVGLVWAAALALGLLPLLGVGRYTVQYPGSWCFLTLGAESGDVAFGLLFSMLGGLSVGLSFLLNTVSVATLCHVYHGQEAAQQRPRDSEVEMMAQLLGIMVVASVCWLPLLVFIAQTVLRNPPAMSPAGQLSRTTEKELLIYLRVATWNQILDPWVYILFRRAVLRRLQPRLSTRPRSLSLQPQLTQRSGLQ
# T3 sequence (P25105 whole entry): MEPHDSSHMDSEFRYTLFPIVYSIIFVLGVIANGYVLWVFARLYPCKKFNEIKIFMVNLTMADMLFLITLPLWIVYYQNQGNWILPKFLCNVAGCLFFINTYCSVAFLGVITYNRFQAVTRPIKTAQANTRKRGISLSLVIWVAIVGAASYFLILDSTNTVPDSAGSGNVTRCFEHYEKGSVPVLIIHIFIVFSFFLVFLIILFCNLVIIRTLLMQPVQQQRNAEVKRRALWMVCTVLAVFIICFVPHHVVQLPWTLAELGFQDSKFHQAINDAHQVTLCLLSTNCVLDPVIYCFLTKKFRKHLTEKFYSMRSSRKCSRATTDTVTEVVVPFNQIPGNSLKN
# T1 sequence (Q96G91 whole entry, one chain of several): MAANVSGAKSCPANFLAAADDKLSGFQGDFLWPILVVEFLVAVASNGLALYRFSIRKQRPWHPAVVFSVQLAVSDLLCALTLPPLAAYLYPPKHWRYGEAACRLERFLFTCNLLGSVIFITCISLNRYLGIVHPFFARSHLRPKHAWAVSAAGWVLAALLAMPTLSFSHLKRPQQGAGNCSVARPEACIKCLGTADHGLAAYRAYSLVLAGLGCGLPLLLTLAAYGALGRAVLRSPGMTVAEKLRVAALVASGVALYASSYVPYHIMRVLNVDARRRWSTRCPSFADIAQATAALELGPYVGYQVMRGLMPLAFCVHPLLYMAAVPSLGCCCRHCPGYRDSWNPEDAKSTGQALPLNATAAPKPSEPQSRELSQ
# T2 sequence (P43116 whole entry): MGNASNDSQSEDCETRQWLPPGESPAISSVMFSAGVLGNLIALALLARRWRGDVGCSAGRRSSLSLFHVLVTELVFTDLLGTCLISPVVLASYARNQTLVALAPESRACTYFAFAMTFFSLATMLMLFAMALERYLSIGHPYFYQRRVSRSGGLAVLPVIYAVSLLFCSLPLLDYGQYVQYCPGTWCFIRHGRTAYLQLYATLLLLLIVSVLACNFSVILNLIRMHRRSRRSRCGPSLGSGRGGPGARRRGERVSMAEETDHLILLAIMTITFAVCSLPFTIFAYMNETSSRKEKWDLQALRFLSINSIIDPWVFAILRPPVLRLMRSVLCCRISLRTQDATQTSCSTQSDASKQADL
# T7 sequence (Q8TDS5 whole entry): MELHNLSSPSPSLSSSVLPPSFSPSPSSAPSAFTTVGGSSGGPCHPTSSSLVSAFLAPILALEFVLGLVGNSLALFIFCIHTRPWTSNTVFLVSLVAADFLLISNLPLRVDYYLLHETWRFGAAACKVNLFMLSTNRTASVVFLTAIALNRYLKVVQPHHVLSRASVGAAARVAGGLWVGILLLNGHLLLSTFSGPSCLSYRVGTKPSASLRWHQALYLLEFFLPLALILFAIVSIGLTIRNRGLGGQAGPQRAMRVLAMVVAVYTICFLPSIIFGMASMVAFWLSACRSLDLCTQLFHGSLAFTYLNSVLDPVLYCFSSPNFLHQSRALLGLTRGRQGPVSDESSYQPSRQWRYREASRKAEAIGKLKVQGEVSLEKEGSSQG
molecule,measurement,setting,value
Nc1ncnc2c1ncn2[C@@H]1O[C@H](COP(=O)(O)OP(=O)(O)OP(=O)(O)O)[C@@H](O)[C@H]1O [ATP],EC80,[1],1290 µM
CCCCC[C@H](O)/C=C/[C@H]1[C@H](O)CC(=O)[C@@H]1C/C=C\CCCC(=O)O [Prostaglandin E2],EC80,[2]; follow-up concentration-response assays,0.00475 µM
same,EC80,"[2]; screen, HEK, 37C, 2HR",0.00358 µM
same,EC80,[3],3.65 µM
CCCCCCCCCCCCCCCCOC[C@H](COP(=O)([O-])OCC[N+](C)(C)C)OC(C)=O [PAF],EC80,[4],0.019 µM
CC#CCC(C)[C@H](O)/C=C/[C@@H]1[C@H]2c3cccc(CCCC(=O)O)c3O[C@H]2C[C@H]1O (mixture of isomers) [Beraprost],EC80,[5],1.7 µM
Peptide YY: control agonist,EC80,[6],0.00418 µM
Relaxin-3,EC80,[7],0.0627 µM
CCCCC/C=C\C/C=C\C/C=C\C=C\C(=O)CCCC(=O)O [5-OxoETE],EC80,[8],2.13 µM
O=C(O)CCC/C=C\C[C@@H]1[C@@H](/C=C/[C@@H](O)COc2ccc(I)cc2)[C@H]2CC[C@@H]1O2 [I-BOP],EC80,[9],0.0291 µM
Tyr-SST 14,EC80,[10],0.0542 µM
